Key:
[1] = system: Ex vivo T. gondii cysts (PRU strain); assay: Cyst and bradyzoite penetration observed by fluorescence microscopy; type: cell-based, Toxoplasma gondii; conditions: 37 °C, exposure time 100 ms
Text: To focus on the ability of the cyclic tetrapeptide moiety to transport compounds through the cyst wall, we began our investigation by monitoring the transport of the poorly cell-permeable fluorochrome 3 (Figure 2) by optical microscopy.
To ensure that the fluorescent compound was incorporated to the parasite cell, bradyzoites were released from treated cysts (Figure 3b).
Cysts were isolated from the brains of mice chronically infected with the Pru-Δhxgprt-A7 or the Pru strains for at least 6 weeks, either using the Percoll gradient method as described previously or directly harvesting the cysts using a 10-μL pipet for the dye experimentation in order to prevent deterioration of the cyst wall for the permeability studies.
Images were acquired with a Axioplan 2 fluorescence microscope (Carl Zeiss Microimaging, Thornwood, NY, USA) and processed with the ZEN software (Zeiss).

[2] = system: T. gondii RH strain tachyzoite; type: cell-based, Toxoplasma gondii; conditions: intracellular growth of RH strain tachyzoite in HFF
Text: The parasite strains used in this study are the following: the T. gondii type I RH strain that has lost the ability to complete cyst conversion, the T. gondii type II Prugniaud (Pru) strain that is capable of robust bradyzoite differentiation, the T. gondii type II Pru-Δhxgprt-A7 strain that expresses green fluorescent protein (GFP), the Pru-Δku80 strain [36, 37], and the RH Tg hdac3 T99A strain (previously obtained in our laboratory).
(§1) All T. gondii strains were maintained by serial passage in an HFF (Human Foreskin Fibroblasts) monolayer under tachyzoite growth conditions in Dulbecco’s modified Eagle medium (DMEM; Invitrogen) supplemented with 10% (vol/vol) fetal bovine serum (FBS; Invitrogen), 4 mM glutamine, 500 U/mL penicillin, 250 µg/mL streptomycin at 37 °C and 25 mM Hepes buffer (Invitrogen) in 5% CO2.

human cells HFF = type: cell-based; conditions: human foreskin fibroblasts
Experimental: as §1

Row | SMILES | Fluorescent labeling of isolated cysts (cyst penetration) ([1]; isolated ex vivo cysts, 1 µM, 24 h, PBS washing) | EC50 [2] | Fluorescence of isolated cysts (penetration and accumulation in the cyst) ([1]; 200 nM to 3.7 µM, 3, 22 and 96 h) | Labeling of bradyzoites released from treated cysts ([1]; 3.7 µM for 3 h, bradyzoites released from the cyst) | EC50 (human cells HFF)
1 | C=CCC[C@@H]1NC(=O)[C@H]2CCCN2C(=O)[C@H](Cc2ccccc2)NC(=O)[C@](C)(Cc2cn(-c3cc4ccc(N(CC)CC)cc4oc3=O)nn2)NC1=O [compound 2] | labeled them with a high intensity |  |  |  | 
2 | CCN(CC)c1ccc2cc(-n3cc(C[C@]4(C)NC(=O)[C@H](CCCCCC(=O)[C@@H](C)O)NC(=O)[C@H]5CCCN5C(=O)[C@H](Cc5ccccc5)NC4=O)nn3)c(=O)oc2c1 [compound 1] |  | 43 ± 2.2 nM | increasing fluorescence was observed | clearly show labeling of these bradyzoites | 280 ± 20 nM

— paper PMC8708940, “Crossing of the Cystic Barriers of Toxoplasma gondii by the Fluorescent Coumarin Tetra-Cyclopeptide” (Molecules, 2021)
